These results are taken from the NIST ThermoML archive (doi:10.1016/j.jct.2015.07.042).

The nature of the series: activity coefficient (dimensionless); of the first substance listed, at infinite dilution; xn = mol fraction of the nth substance listed. Particulars: 101 kPa, Liquid, Chromatography, x1 = 0.

The structures appear in SMILES notation. ± gives the expanded uncertainty stated by the source.

Take `C1CCCC1` [cyclopentane] + CCCCn1cc[n+](C)c1.COP(=O)([O-])OC: the activity coefficient (358.15 K) was 8.76 ± 0.6, the activity coefficient (368.15 K) turned out to be 8.59 ± 0.59, the activity coefficient (378.15 K) came out at 8.41 ± 0.57 and the activity coefficient (388.15 K) is 8.33 ± 0.57.

In the case of `C1CCOC1` [tetrahydrofuran] + CCCCn1cc[n+](C)c1.[Cl-], the activity coefficient (358.15 K) worked out at 5.66 ± 0.39, the activity coefficient (368.15 K) was found to be 5.67 ± 0.39, the activity coefficient (378.15 K) was determined as 5.67 ± 0.39 and the activity coefficient (388.15 K) turned out to be 5.7 ± 0.39.

Turning to `c1ccsc1` [thiophene] + CCCCn1cc[n+](C)c1.CS(=O)(=O)[O-], the activity coefficient is 1.72 ± 0.12 (358.15 K), 1.81 ± 0.12 (368.15 K), 1.94 ± 0.13 (378.15 K) and 2.05 ± 0.14 (388.15 K).

For `CCc1ccccc1` [ethylbenzene] + CCCCn1cc[n+](C)c1.CS(=O)(=O)[O-], the activity coefficient is, setting by setting: (358.15 K) 8.45 ± 0.58; (368.15 K) 8.61 ± 0.59; (378.15 K) 8.76 ± 0.6; (388.15 K) 9.05 ± 0.62.

Consider `CCCC(=O)OC` [methyl butanoate] + CCCCn1cc[n+](C)c1.CS(=O)(=O)[O-], for which the activity coefficient was found to be 6.79 ± 0.46 (358.15 K), 7.21 ± 0.49 (368.15 K), 7.39 ± 0.5 (378.15 K) and 7.84 ± 0.53 (388.15 K).

As for `C1CCCC1` [cyclopentane] + CCCCn1cc[n+](C)c1.[Cl-], the activity coefficient stood at 38.7 ± 2.6 (358.15 K), 36.2 ± 2.5 (368.15 K), 33.5 ± 2.3 (378.15 K) and 31.8 ± 2.2 (388.15 K).

In the case of `c1ccsc1` [thiophene] + CCCCn1cc[n+](C)c1.COP(=O)([O-])OC, the activity coefficient (358.15 K) was found to be 1.24 ± 0.08, the activity coefficient (368.15 K) is 1.35 ± 0.09, the activity coefficient (378.15 K) was 1.43 ± 0.09 and the activity coefficient (388.15 K) stood at 1.53 ± 0.1.

Take `C#CCCCCC` [1-heptyne] + CCCCn1cc[n+](C)c1.[Cl-]: the activity coefficient amounted to 11.6 ± 0.79 (358.15 K), 12.3 ± 0.84 (368.15 K), 12.7 ± 0.87 (378.15 K) and 13.3 ± 0.91 (388.15 K).

Turning to `Cc1ccc(C)cc1` [1,4-dimethylbenzene] + CCCCn1cc[n+](C)c1.[Cl-], the activity coefficient runs as follows: (358.15 K) 13.6 ± 0.93; (368.15 K) 13.7 ± 0.94; (378.15 K) 14 ± 0.96; (388.15 K) 14.3 ± 0.98.

Consider `C=CCCCC` [hex-1-ene] + CCCCn1cc[n+](C)c1.[Cl-], for which the activity coefficient (358.15 K) stood at 61.7 ± 4.2, the activity coefficient (368.15 K) turned out to be 57.9 ± 4, the activity coefficient (378.15 K) was 53.9 ± 3.7 and the activity coefficient (388.15 K) was determined as 52 ± 3.6.

Turning to `CC(C)(C)O` [2-methylpropan-2-ol] + CCCCn1cc[n+](C)c1.[Cl-], the activity coefficient came out at 0.987 ± 0.062 (398.15 K), 1.07 ± 0.067 (408.15 K), 1.16 ± 0.074 (418.15 K) and 1.27 ± 0.082 (428.15 K).

Turning to `Cc1ccccc1` [toluene] + CCCCn1cc[n+](C)c1.COP(=O)([O-])OC, the activity coefficient worked out at 3.86 ± 0.26 (358.15 K), 3.99 ± 0.27 (368.15 K), 4.09 ± 0.28 (378.15 K) and 4.29 ± 0.29 (388.15 K).

`C=C(C)c1ccccc1` [(1-methylethenyl)benzene] + CCCCn1cc[n+](C)c1.COP(=O)([O-])OC: the activity coefficient runs as follows: (358.15 K) 4.57 ± 0.31; (368.15 K) 4.77 ± 0.33; (378.15 K) 4.98 ± 0.34; (388.15 K) 5.29 ± 0.36.

With `COC(C)(C)C` [2-methoxy-2-methylpropane] + CCCCn1cc[n+](C)c1.[Cl-], the activity coefficient worked out at 24.6 ± 1.7 (358.15 K), 23.8 ± 1.6 (368.15 K), 23 ± 1.6 (378.15 K) and 22.9 ± 1.6 (388.15 K).

On to `c1ccncc1` [pyridine] + CCCCn1cc[n+](C)c1.COP(=O)([O-])OC, for which the activity coefficient was 1.18 ± 0.08 (358.15 K), 1.23 ± 0.08 (368.15 K), 1.28 ± 0.08 (378.15 K) and 1.35 ± 0.09 (388.15 K).
